The source of these data is patent US20030040012A1, “Method of detecting protein-protein interaction” (priority 2000, published 2003).

Format in all cases: cell-based
In one experiment the test system is Npw38. Nature of the experiment: Npw38-NpwBP binding detection by intracellular localization of GFP fluorescence in COS7 cells. Particulars: co-introduced with Npw38 expression vector, fluorescence microscopy. As to the method: (§1) Monkey kidney-derived, cultured cell COS7 was incubated in a 10% fetal calf serum-containing Dulbecco's modified Eagle's medium (DMEM) in the presence of 5% CO2 at 37° C. COS7 cells of 1=10^5 were placed in a 6-well plate (from Nunk, having a well diameter of 3 cm), and further incubated therein in the presence of 5% CO2 at 37° C. for 22 hours. After the medium was removed, the cell sur were washed with a phosphate buffer solution (PBS), and then further washed with a 50 mM Tris-HCl (pH 7.5)-containing DMEM. To these cells, added was a suspension comprising 1 μl of a plasmid suspension, 0.6 ml of DMEM and 3 μl of TRANSFECTAM™ (from IBF), and incubated in the presence of 5% CO2 at 37° C. for 12 hours. Then, the cells were washed with PBS, and fixed with 4% peraformaldehyde-containing PBS at room temperature for 10 minutes. The thus-fixed cells were washed with PBS, then treated with 0.2% Triton X-100, and thereafter blocked with 5% milk PBS. This was reacted with an anti-HA antibody for 45 minutes, then washed with PBS, and reacted with a rhodamine-binding secondary antibody for 45 minutes.
Fusion protein HA-Npw38 (A. Komuro et al., J. Biol. Chem., 274: 36513-36519, 1999) was used. This is a fusion protein A-X in which X is Npw38 and A is HA tag. […] Also used were fusion proteins NpwBP(P1)-GFP and NpwBP(P2)-GFP. These are fusion proteins Y-B in which Y is a proline-rich region of NpwBP and B is GFP. In these, P1 contains amino acid residues of from 190th valine to 210th glutamine in SEQ ID NO: 2; and P2 contains amino acid residues of from 401st glutamine to 541st isoleucine in Seq ID NO: 2.
First, pKA1-NpwBP(P1)-GFP or pKA1-NpwBP(P2)-GFP was singly introduced into COS7 cells, and the localization of these fusion proteins in the cells was checked through fluorescence microscopy based on the green fluorescence of GFP as the index thereof. […] In this stage, the cells were immunostained with an antibody against the tag to check the localization of the fusion protein HA-Npw38. This verified the localization of the fusion protein in the nucleus of each cell (FIG. 3c).

A further experiment addresses T1, NpwBP(P2)-Bcl-XL (Homo sapiens, UniProt Q07817+Q9Y2W2).
T1 construct: expressed in transfected cells; host or cells: COS7 (monkey kidney)
As to the kind of experiment: Application of mitochondrial localization signal: co-expression with NpwBP(P2)-Bcl-XL in COS7 cells. Particulars: mitochondrial region detected with anti-human mitochondrial antibody. The protocol: as §1, with “45 minutes. […]” for “45 minutes.”
However, when the fusion protein NpwBP(P2)Bcl-XL was co-expressed therein, the mitochondrial region of each cell also gave the fluorescence (FIG. 4). The mitochondrial region in each cell was detected through immunostaining with an anti-human mitochondrial antibody (Leinco Technologies, Inc.). […]

The target in the next experiment is T2, NpwBP (Homo sapiens, UniProt Q9Y2W2).
T2 construct: expressed in transfected cells; host or cells: COS7 (monkey kidney)
T2 sequence (Q9Y2W2 1-641): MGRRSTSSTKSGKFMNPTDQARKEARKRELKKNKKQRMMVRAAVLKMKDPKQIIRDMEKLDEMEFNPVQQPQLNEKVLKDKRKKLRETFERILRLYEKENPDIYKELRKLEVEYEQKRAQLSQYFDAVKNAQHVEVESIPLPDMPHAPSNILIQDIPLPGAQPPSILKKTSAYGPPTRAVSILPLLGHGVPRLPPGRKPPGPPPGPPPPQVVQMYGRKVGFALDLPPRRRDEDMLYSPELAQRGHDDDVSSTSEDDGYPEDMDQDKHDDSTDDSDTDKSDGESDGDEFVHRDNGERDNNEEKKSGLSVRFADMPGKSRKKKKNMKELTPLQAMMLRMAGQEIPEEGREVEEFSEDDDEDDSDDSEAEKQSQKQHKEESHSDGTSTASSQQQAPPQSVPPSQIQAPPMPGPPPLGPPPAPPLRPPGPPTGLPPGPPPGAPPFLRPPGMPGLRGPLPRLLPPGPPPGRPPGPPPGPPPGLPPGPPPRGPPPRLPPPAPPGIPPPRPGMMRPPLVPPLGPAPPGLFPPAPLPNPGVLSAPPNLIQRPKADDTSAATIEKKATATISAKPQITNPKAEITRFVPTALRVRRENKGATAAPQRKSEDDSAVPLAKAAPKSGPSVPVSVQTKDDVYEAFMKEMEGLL
As to the kind of experiment: Contrary system: NpwBP co-expressed with Npw38(ΔC)-GFP in COS7 cells, GFP localization. The protocol:
as §1
Systems contrary to those in the above (3) were tried.

T1 sequence (Q9Y2W2+Q07817 fused): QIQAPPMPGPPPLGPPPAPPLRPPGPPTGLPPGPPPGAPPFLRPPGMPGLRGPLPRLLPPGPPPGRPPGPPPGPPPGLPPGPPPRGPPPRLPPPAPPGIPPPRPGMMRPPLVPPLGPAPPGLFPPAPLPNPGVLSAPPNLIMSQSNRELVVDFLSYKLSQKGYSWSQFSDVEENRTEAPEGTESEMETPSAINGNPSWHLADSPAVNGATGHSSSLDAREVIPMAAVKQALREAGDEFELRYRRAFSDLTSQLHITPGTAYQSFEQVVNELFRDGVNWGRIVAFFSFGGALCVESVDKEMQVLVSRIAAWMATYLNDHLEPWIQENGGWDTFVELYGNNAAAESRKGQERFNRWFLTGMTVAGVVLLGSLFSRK

“GFP: green fluorescent protein, expressed in place of NpwBP-GFP as control [reference compound]”: in the experiment on Npw38, the “localization of the green fluorescence on co-expression with Npw38” value (“localization … with Npw38” for short) is “no intranuclear localization”.

As for “Npw38(ΔC)-GFP: fusion protein in which the nuclear localization signal in Npw38 was deleted, fused to GFP”, the “localization of the fluorescence on co-expression with NpwBP(P2)-Bcl-XL” value with NpwBP(P2)-Bcl-XL was “localized also in the mitochondrial region”. In the experiment with NpwBP, the “localization of the green fluorescence on co-expression with NpwBP” value was “move in the nucleus”.

As for “NpwBP(P1)-GFP: fusion protein of proline-rich region P1 of NpwBP (residues 190-210 of SEQ ID NO: 2) and GFP”, the “localization … with Npw38” value in the experiment with Npw38 was “localized in the nucleus”.

On to “NpwBP(P2)-GFP: fusion protein of proline-rich region P2 of NpwBP (residues 401-541 of SEQ ID NO: 2) and GFP”, for which, in the experiment on Npw38, the “localization … with Npw38” value is recorded as “localized in the nucleus”.
